The results in this text go back to patent US20240285670A1, “THERAPEUTIC TREATMENT OF TUMORS BY BLOCKING THE HEME SYNTHESIS-EXPORT AXIS” (Università degli Studi di Torino, priority 2021, published 2024).

What all share (assay type): cell-based, human
One data set deals with ALAS1. The data set is described as follows: Western blot analysis of ALAS1 expression in SKCO1 cells. The following applies: 5 mM ALA for 16, 24 and 48 hours vs untreated. On the procedure: (A) Heme content in SHSY5Y cells non-treated (NT) or treated with 5 mM ALA for 15 hours. Values are expressed as pmol heme/mg protein. Data represent mean±SEM, n=3; *=P<0.05. (B, C) qRT-PCR analysis of the expression of ALAS1 (B) and FLVCR1a (C) in SHSY5Y cells non-treated (NT) or treated with 5 mM ALA for 15 hours. Transcript abundance, normalized to beta-actin mRNA expression, is expressed as a fold increase over a calibrator sample. Data represent mean±SEM, n=4. For statistical analyses, an unpaired Student's t-test was used; *p<0.05. (D) qRT-PCR analysis of the expression of ALAS1 in SKCO1 cells untreated (NT) or treated with 5 mM ALA for 24 hours. Transcript abundance, normalized to beta-actin mRNA expression, is expressed as a fold increase over a calibrator sample. Data represent mean±SEM, n=5. […] Band intensities were measured by densitometry and normalized to beta-actin expression. […] (F) Proliferation of SHSY5Y cells assessed by crystal violet staining at different time points (starting from the day after plating, named “day 0”). Treatment with 5 mM ALA occurred at “day 0” and cells were monitored until the end of the experiment without medium refresh. […] (G) SKCO1 cells viability measured by the CellTiter-Fluor Cell Viability Assay (Promega, Madison, WI USA, catalog n°G6080) at different time points, starting from the day after plating (named “day 0”), as a readout of cell proliferation. […]
On the technique in general: In western blotting, separated proteins are transferred to a membrane and probed.

The next data set concerns C80 cells. The data set is described as follows: TCA cycle flux in C80 cells. The following applies: FLVCR1a-silenced vs scramble shRNA C80 cells. The text has this: (§1) TCA cycle flux is reported in the centre of the figure and expressed as pmol CO2/h/mg protein. Data represent mean±SEM, n=3. For statistical analyses, an unpaired Student's t-test was used. **=p<0.01. Moreover, TCA cycle enzymes activities are reported in boxes and expressed as mU/mg mitochondrial proteins. Data represent mean±SEM, n=3. For statistical analyses, an unpaired Student's t-test was used; *=p<0.05, ***=p<0.001. […] Results are expressed as pmol CO2/h/mg protein. Data represent mean±SEM, n=3. For statistical analyses, an unpaired Student's t-test was used; *=p<0.05, **=p<0.01.
(§2) The glucose flux through TCA cycle was measured by radiolabeling cells with 2 μCi/ml [6-^14C]-glucose (55 mCi/mmol; PerkinElmer, Waltham, MA, USA, catalog n° NEC045X). Cell suspensions were incubated for 1 hour in a closed experimental system to trap the ^14CO2 developed from [^14C]-glucose. The reaction was stopped by injecting 0.5 ml of 0.8N HClO4. The amount of glucose transformed into CO2 through the TCA cycle was calculated as described (Riganti et al., 2004) and expressed as pmoles CO2/h/mg cell proteins.

In a further data set the test system is Caco2 cells. The data set is described as follows: TCA cycle flux in Caco2 cells. Particulars: FLVCR1a-silenced vs scramble shRNA Caco2 cells.
From the text: as §1
(A) TCA cycle flux in Caco2 cells expressing a scramble shRNA untreated or treated with 25 μM hemin for 2 hours. Moreover, the TCA cycle flux of untreated FLVCR1a-silenced Caco2 cells is reported for comparison. Results are expressed as pmol CO2/h/mg protein. Data represent mean±SEM, n=3. […] Results are expressed as pmol CO2/h/mg protein. […] Results are expressed as pmol CO2/h/mg protein. […]
The glucose flux through TCA cycle was measured by radiolabeling cells with 2 μCi/ml [6-^14C]-glucose (55 mCi/mmol; PerkinElmer, Waltham, MA, USA, catalog n° NEC045X). […] The amount of glucose transformed into CO2 through the TCA cycle was calculated as described (Riganti et al., 2004) and expressed as pmoles CO2/h/mg cell proteins.

The next data set concerns SKCO1 cells. The data set is described as follows: TCA cycle flux in SKCO1 cells. Particulars: FLVCR1a-silenced vs scramble shRNA SKCO1 cells.
From the text: as §1, §2

With `Cl.NCC(=O)CCC(=O)O` [5-ALA, 5-Aminolevulinic acid hydrochloride], the ALAS1 protein levels result in the data set on ALAS1 is on record as “decreased”.
As to “FLVCR1a shRNA: shRNA specifically down-regulating FLVCR1a without targeting FLVCR1b; pLKO.1 lentiviral clone TRCN0000059599, antisense SEQ ID No.: 2 (antisense TTGCTAATGATGCTGTACTGG; sense CCAGTACAGCATCATTAGCAA)”, the TCA cycle flux result with C80 cells and with SKCO1 cells was “Increased TCA cycle flux” throughout. Also, the “total flux of the TCA cycle” value in the data set with Caco2 cells was “significantly up-regulated”.
